Values quoted from earlier work in US20220160619A1, “Effervescent Drug Formulations” (Complete Medical Solutions, LLC, priority 2020, published 2022).

Conditions: long-term metformin therapy in addition to dietary management

## CN(C)C(=N)N=C(N)N [metformin]
  diabetic patients with cobalamin malabsorption: 30%
